In article PMC4330696, “Characterization of the serine acetyltransferase gene family of Vitis vinifera uncovers differences in regulation of OAS synthesis in woody plants” (Frontiers in Plant Science, 2015) one finds OASTL activity and IC50 data, which are given here for two compounds.

For one assay, the target named is T1, AtOASTL-B (Arabidopsis thaliana, UniProt P47999).
T1 construct: gene OASB; recombinant, expressed in E. coli (Wirtz et al. 2004)
In words: OASTL activity assay (Gaitonde); […]-1 pmol enzyme, turnover only. Format: biochemical. Particulars: co-substrate sulfide; control without SERAT.

Another assay has as its target T2, VvSERAT2;1 (Vitis vinifera, UniProt F6HCV5).
T2 construct: gene VIT_00s0194g00120; N-terminal His tag (pET28a), E. coli; lacks predicted transit peptide (57 residues predicted); naturally lacks canonical C-terminal tail; free SERAT without OASTL
T2 sequence (F6HCV5 58-306): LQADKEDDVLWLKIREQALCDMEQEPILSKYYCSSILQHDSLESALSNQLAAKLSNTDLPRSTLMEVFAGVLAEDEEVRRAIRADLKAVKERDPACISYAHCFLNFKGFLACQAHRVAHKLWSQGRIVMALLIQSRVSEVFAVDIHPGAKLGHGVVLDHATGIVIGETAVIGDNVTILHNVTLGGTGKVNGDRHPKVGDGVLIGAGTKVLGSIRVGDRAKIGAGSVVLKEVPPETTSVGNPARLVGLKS
In words: SERAT activity assay, titration with cysteine up to […]. Format: biochemical. The following applies: read-out: Cys Inhibition (IC50 mM).

T1 sequence (P47999 61-392): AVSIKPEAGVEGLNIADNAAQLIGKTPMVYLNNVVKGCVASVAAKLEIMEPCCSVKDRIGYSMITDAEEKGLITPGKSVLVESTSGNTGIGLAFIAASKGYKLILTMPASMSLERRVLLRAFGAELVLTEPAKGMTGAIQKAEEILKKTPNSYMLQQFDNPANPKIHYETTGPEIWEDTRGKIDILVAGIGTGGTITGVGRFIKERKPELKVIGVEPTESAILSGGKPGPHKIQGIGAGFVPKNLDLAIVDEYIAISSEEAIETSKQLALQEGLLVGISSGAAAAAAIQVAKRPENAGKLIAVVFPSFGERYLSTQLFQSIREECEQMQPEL

As to `CC(=O)OC[C@H](N)C(=O)O` [O-acetylserine], the OASTL activity entry on AtOASTL-B is reported as “Enzymatic activity of OASTL was determined according to Gaitonde”.

By IC50 is commonly meant the concentration needed to halve the response being measured. As to `N[C@@H](CS)C(=O)O` [L-Cys], the IC50 on VvSERAT2;1 was determined as 1.9 ± 0.56 mM.
